US9149044B2, “Pesticidal compositions” (Syngenta Participations AG, priority 2011, dated 2015)

Tested on: Heterodera glycines race 3
Experiment: Soybean pot test, cyst count as indicator of nematode control
Type: in vivo
Settings: 28 days after planting
Source text: A plug measuring 0.75 inch (approximately 1.9 cm) in diameter and 1 inch (approx. 2.5 cm) in depth was removed from each 3 inch diameter×8 inch deep (approx. 7.6×20 cm) plastic pot. Five thousand Heterodera glycines race 3 eggs were placed at the bottom of the plug hole. A soybean variety 3.6-B6 seed was placed on top of the inoculum. Six replicates were made for each treatment group. In addition to untreated control, the treatment groups were Pasteuria nishizawae, Bacillus firmus, and Pasteuria nishizawae+Bacillus firmus.
Bacillus firmus came applied as a seed treatment (available commercially, for example, from Bayer Crop Science as VOTIVO product, PONCHO/VOTIVO, having Bacillus firmus concentration at least 2×10^9 cfu/ml+clothianidin (0.13 mg/seed)). A point application containing Pasteuria nishizawae (approximately 5.0×10^9 spores) was applied directly to the seed in the pot. The plug was replaced in the hole to cover the seed. The soil was Vero Beach (Florida, USA) top soil, pH 5.9 (approximate composition sand 93%, silt 2%, clay 2%, organic matter 3%).
At 28 days after planting, plant height was measured and plants were removed from the pots. Soil was gently rinsed from the roots. The rinsed roots were placed in a 20 mesh over a 60 mesh sieve. The root system was blasted with water to remove cyst nematode females. The 20 mesh sieve was removed and the cysts were washed to the bottom of the 60 mesh sieve. The cysts were rinsed into a tube for counting under a stereoscope. Later the dry root weights were measured.

Pasteuria nishizawae was tested, and the “Average Cyst Count” value (5000 eggs per pot, average of six replicates) was 366, the “Cyst Count” value (5000 eggs per pot, cysts washed from roots, average of six replicates) was 366 and the “% Control Observed” value (from cyst count versus untreated control) was 2.40%.
